Type in all cases: in vivo
Assay [1] has as its system green peach aphid (Myzus persicae). The experiment in a line: Myzus persicae test. The settings on record: 24 h, read-out: Kill in % after 1^d. The protocol: (§1) • Solvents: 78 parts by weight of acetone 1.5 parts by weight of dimethylformamide • Emulsifier: 0.5 part by weight of alkylaryl polyglycol ether
(§2) To produce a suitable preparation of active compound, 1 part by weight of active compound is mixed with the stated amount of solvent and emulsifier, and the concentrate is diluted with emulsifier-containing water to the desired concentration.
Cabbage leaves (Brassica oleracea) which are heavily infested by the green peach aphid (Myzus persicae) are treated by spraying with the active compound preparation of the desired concentration.
After the desired period of time, the kill in % is determined 100% means that all of the aphids have been killed; 0% means that none of the aphids have been killed. The kill rates determined are entered into Colby's formula (see above).

Assay [2] deals with larvae of the mustard beetle (Phaedon cochleariae). The experiment in a line: Phaedon cochleariae larvae test. The settings on record: for Kill in % after 2^d: sprayed cabbage leaves.
Assay [3] deals with greenhouse red spider mite (Tetranychus urticae). As to the kind of experiment: Tetranychus urticae test (OP-resistant/spray treatment). The protocol:
as §1, §2
Discs of bean leaves (Phaseolus vulgaris) which are infested by all stages of the greenhouse red spider mite (Tetranychus urticae) are sprayed with an active compound preparation of the desired concentration.
After the desired period of time, the effect in % is determined. 100% means that all of the spider mites have been killed; 0% means that none of the spider mites have been killed.

Assay [4] deals with larvae of the armyworm (Spodoptera frugiperda). As to the kind of experiment: Spodoptera frugiperda test. The settings on record: sprayed cabbage leaves.
Setting [5] is: 200 g/ha, spray on infested cabbage leaves, after 1 d.
The mark [6] stands for this setting: Phaedon cochleariae, 144 h, single active compound, 200 g/ha, 6 d, read-out: Kill in % after 6 d.
[7] abbreviates: Tetranychus urticae, 144 h, single active compound, 100 g/ha, 6 d, read-out: Kill in % after 6 d.
[8] abbreviates: Phaedon cochleariae, 144 h, single active compound, 20 g/ha, 6 d, read-out: Kill in % after 6 d.
The mark [9] stands for this setting: Phaedon cochleariae, 144 h, single active compound, 100 g/ha, 6 d, read-out: Kill in % after 6 d.
Setting [10] is: Tetranychus urticae, 144 h, read-out: Kill in % after 6 d.
Setting [11] is: single active compound, 100 g/ha.
Where [12] appears, read: single active compound, 500 g/ha, 6 d.
Setting [13] is: single active compound, 200 g/ha.

Molecules are shown by their SMILES. Like-named read-outs stand apart in the source and are kept apart here.

As to `Cc1nn(C)c(F)c1C(=O)Nc1ccccc1C(C)CC(C)C` (stereo not drawn) [N-[2-(1,3-dimethylbutyl)phenyl]-5-fluoro-1,3-dimethyl-1H-pyrazole-4-carboxamide], the pest or weed control at 200 g/ha in assay [1] (setting [5]) and in assay [2] (setting [6]) was 0% in each case.

In the case of `CO/C=C(/C(=O)OC)c1ccccc1Oc1cc(Oc2ccccc2C#N)ncn1` [azoxystrobin], the pest or weed control at 500 g/ha in assay [2] (Phaedon cochleariae, 144 h, single active compound, 500 g/ha, 6 d, read-out: Kill in % after 6 d) stood at 0%.

As to `O=C1C=C(N(CCF)Cc2ccc(Cl)nc2)CO1` [compound (I-4), 4-{[(6-chloropyrid-3-yl)methyl](2-fluoroethyl)amino}furan-2(5H)-one], in assay [3] (Tetranychus urticae, 144 h, single active compound, 4 g/ha, 6 d, read-out: Kill in % after 6 d), the pest or weed control at 4 g/ha worked out at 50%. The pest or weed control at 100 g/ha in assay [3] (setting [7]) is 80%; in assay [2] (setting [9]), 17%. Moreover, the pest or weed control at 0.8 g/ha in assay [1] (0.8 g/ha, spray on infested cabbage leaves, after 1 d) came out at 50%. Moreover, the “Kill in % after 2^d” value in assay [2] (20 g/ha) was found to be 0%. Also, the pest or weed control at 20 g/ha in assay [2] (setting [8]) is 0%.

For the compound `O=C1C=C(N(Cc2ccc(Cl)nc2)CC(F)F)CO1` [compound (I-5), 4-{[(6-chloropyrid-3-yl)methyl](2,2-difluoroethyl)amino}furan-2(5H)-one], the values for the pest or weed control at 100 g/ha in assay [3] (setting [10]) and in assay [2] (setting [9]) were 0% and 50%, respectively. The “Kill in % after 2 d” value in assay [3] (setting [11]) is given as 20%. Also, the pest or weed control at 0.8 g/ha in assay [1] (in Brassica oleracea) stood at 50%. Besides, the “Kill in % after 2^d” value in assay [2] (20 g/ha) was found to be 0%. Further, the pest or weed control at 20 g/ha in assay [2] (setting [8]) is 0%.

On to `CN(Cc1cnc(Cl)c(F)c1)C1=CC(=O)OC1` [compound (I-6), 4-{[(6-chloro-5-fluorpyrid-3-yl)methyl](methyl)amino}furan-2(5H)-one], for which the pest or weed control at 100 g/ha in assay [3] (setting [7]) was determined as 0%; in assay [2] (setting [9]), 67%. The “Kill in % after 2 d” value in assay [3] (setting [11]) is 0%. For the same compound, the “Kill in % after 6^d” value in assay [4] (100 g/ha) came out at 0%. Moreover, the “Kill in % after 2^d” value in assay [2] (100 g/ha) is 33%. Further, the pest or weed control at 20 g/ha in assay [2] (setting [8]) worked out at 0%.

With `CSC1=N[C@@](C)(c2ccccc2)C(=O)N1Nc1ccccc1` [fenamidone], in assay [1] (in Brassica oleracea), the pest or weed control at 200 g/ha turned out to be 0%. Also, the “Kill in % after 2^d” value in assay [2] (200 g/ha) came out at 0%.

For `N#Cc1c[nH]cc1-c1cccc2c1OC(F)(F)O2` [fludioxonil], the pest or weed control at 200 g/ha was determined as 0% in assay [3] (setting [10]), 0% in assay [1] (in Brassica oleracea) and 17% in assay [2] (setting [6]).

`O=C(NCc1ncc(C(F)(F)F)cc1Cl)c1c(Cl)cccc1Cl` [fluopicolide]: the “Kill in % after 6 d” value in assay [3] (setting [12]) and in assay [2] (setting [12]) was 0% each time.

Take `O=C(NCCc1ncc(C(F)(F)F)cc1Cl)c1ccccc1C(F)(F)F` [fluopyram, N-[2-[3-chloro-5-(trifluoromethyl)-2-pyridinyl]ethyl]-2-(trifluoromethyl)benzamide]: the pest or weed control at 200 g/ha in assay [3] (setting [10]), in assay [1] (in Brassica oleracea) and in assay [2] (setting [6]) was 0% each time.

For the compound `CC(C)NC(=O)N1CC(=O)N(c2cc(Cl)cc(Cl)c2)C1=O` [iprodione], the pest or weed control at 200 g/ha in assay [3] (setting [10]) was 50%; in assay [1] (in Brassica oleracea), 0%; in assay [2] (setting [6]), 0%.

In the case of `Cc1ccc(C(C)NC(=O)[C@@H](NC(=O)OC(C)C)C(C)C)cc1` (stereo partly drawn) [iprovalicarb], the pest or weed control at 200 g/ha in assay [3] (setting [10]) and in assay [2] (setting [6]) was 0% in each case.

Regarding `N#Cc1ccccc1NC(=O)c1snc(Cl)c1Cl` [isotianil], the pest or weed control at 200 g/ha in assay [3] (setting [10]), in assay [1] (in Brassica oleracea) and in assay [2] (setting [6]) was 0% in each case.

On to `COCC(=O)N(c1c(C)cccc1C)C(C)C(=O)OC` (stereo not drawn) [metalaxyl], for which the pest or weed control at 200 g/ha in assay [3] (setting [10]), in assay [1] (in Brassica oleracea) and in assay [2] (setting [6]) was 0% throughout.

For the compound `CCCOC(=O)NCCCN(C)C` [propamocarb], the pest or weed control at 200 g/ha in assay [3] (Tetranychus urticae, 144 h, single active compound, 200 g/ha, 6 d, read-out: Kill in % after 6 d) was found to be 0%; in assay [1] (setting [5]) it was 0%. Moreover, the “Kill in % after 2 d” value in assay [3] (setting [13]) is on record as 0%.

As for `OC(Cc1ccccc1Cl)(Cn1ncnc1S)C1(Cl)CC1` (stereo not drawn) [prothioconazole], the pest or weed control at 200 g/ha in assay [3] (setting [10]) and in assay [1] (in Brassica oleracea) was 0% throughout. For the same compound, the “Kill in % after 2^d” value in assay [2] (200 g/ha) is 0%.

As to `CC(C)(C)C(O)(CCc1ccc(Cl)cc1)Cn1cncn1` (stereo not drawn) [tebuconazole], the values for the pest or weed control at 200 g/ha in assay [3] (setting [10]), in assay [1] (in Brassica oleracea) and in assay [2] (setting [6]) were 70%, 0% and 0%, respectively.

Turning to `Cc1ccc(N(SC(F)(Cl)Cl)S(=O)(=O)N(C)C)cc1` [tolylfluanid], in assay [4] (200 g/ha), the “Kill in % after 6^d” value stood at 0%. For the same compound, the pest or weed control at 200 g/ha amounted to 0% in assay [1] (in Brassica oleracea) and 17% in assay [2] (setting [6]).

For the compound `CC(C)(C)C(O)C(Oc1ccc(Cl)cc1)n1cncn1` (stereo not drawn) [triadimenol], the pest or weed control at 200 g/ha in assay [3] (setting [10]), in assay [1] (in Brassica oleracea) and in assay [2] (setting [6]) was 0% in each case. The “Kill in % after 2 d” value in assay [3] (setting [13]) is 0%.

In the case of `CO/N=C(/C(=O)OC)c1ccccc1CO/N=C(\C)c1cccc(C(F)(F)F)c1` [trifloxystrobin], in assay [2] (200 g/ha), the “Kill in % after 2^d” value is listed as 0%. The pest or weed control at 200 g/ha in assay [2] (setting [6]) amounted to 33%.

The record behind these values is patent publication US20120035050A1, “Synergistic Combinations Of Active Ingredients” (BAYER CROPSCIENCE AG, priority 2009, published 2012).
